The values that follow come from patent US12285403B2, “A2-73 as a therapeutic for insomnia, anxiety and agitation” (Anavex Life Sciences Corp., priority 2016, dated 2025).

In assay [1] the test system is insomnia, anxiety or agitation. The assay can be described thus: Single-patient therapy Examples 1-10 (insomnia, anxiety, agitation). It counts as in vivo, human. As for the experimental part:
A person presents as suffering from maintenance insomnia for one year. They are started on oral A2-73 at 10 mg/day. […] They are currently maintained on 10 mg of A2-73 and is sleeping well. A person presents with anxiety of three years' duration. They are administered A2-73 at 20 mg oral per day every other day. […] They are maintained on this dosing schedule for 60 days. […] They are treated with 30 mg A2-73 oral daily for 30 days. […] They are currently maintained at that dosage and is not anxious. A person presents with MCI and reports maintenance insomnia for one year. They are started on oral A1-41 at 10 mg/day. […] They are currently maintained on 10 mg of A1-41 and is sleeping well. The patient is a person with diagnosed AD and reported anxiety of three years' duration. They are administered A19-144 at 20 mg oral per day every day for 90 days. […] They are chronically maintained on this dosing schedule. A person diagnosed with mild cognitive impairment presents as suffering from maintenance insomnia for one year. They are started on oral A2-73 at 50 mg/day. […] They are currently maintained on 50 mg of A2-73 daily and is sleeping well. A person diagnosed with Alzheimer's disease presents with insomnia/WASO and agitation and a systolic blood pressure of 145 mm Hg. They are started on oral A2-73 at 30 mg/day. […] They are also less agitated. Their results on all cognitive tests and HAM-D improve. They are currently maintained on 30 mg of A2-73 daily. A person diagnosed with Alzheimer's disease presents with insomnia/WASO and agitation. They are started on oral A2-73 at 100 mg/day. […] They are also less agitated. Their results on all cognitive tests and HAM-D improve. They are currently maintained on 100 mg of A2-73 every other day. A person diagnosed with Alzheimer's disease presents with insomnia/WASO and agitation. They are started on oral A19-144 at 50 mg/day. […] They are also less agitated. Their results on all cognitive tests and HAM-D improve. They are currently maintained on 50 mg of A19-144 daily. A person diagnosed with Alzheimer's disease presents with insomnia/WASO and agitation. They are started on oral A1-41 at 30 mg/day. […] They are also less agitated. Their results on all cognitive tests and HAM-D improve. They are currently maintained on 30 mg of A1-41 daily.

Another assay addresses sigma-1 receptors (Homo sapiens, UniProt Q99720). Conditions: 'is believed to bind'; cited from earlier work.
Assay [2] concerns muscarinic acetylcholine receptors. Conditions: 'is believed to bind'; cited from earlier work.
Where [3] appears, read: Example 10: oral 30 mg/day, 60 days.
[4] abbreviates: Example 9: oral 50 mg/day, 30 days.

sigma-1 receptors, sequence (Q99720 whole entry): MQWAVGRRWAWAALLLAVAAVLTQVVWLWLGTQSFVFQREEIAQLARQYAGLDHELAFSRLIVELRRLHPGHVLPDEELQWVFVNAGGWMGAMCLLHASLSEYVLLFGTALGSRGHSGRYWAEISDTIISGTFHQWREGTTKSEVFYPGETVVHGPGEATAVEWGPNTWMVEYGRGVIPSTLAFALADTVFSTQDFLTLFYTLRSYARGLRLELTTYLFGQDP

`CN(C)CC1COC(c2ccccc2)(c2ccccc2)C1.Cl` (stereo not shown) [A1-41, tetrahydro-N,N-dimethyl-5,5-diphenyl-3-furanmethanamine hydrochloride]: the “Sleep at follow up (maintenance insomnia)” value in assay [1] (Example 4: person with MCI, oral 10 mg/day, 30 days) is reported as “sleeping well”. Also, in assay [1] (setting [3]), the “Agitation at follow up” value was “less agitated”; the “Results on all cognitive tests and HAM-D” value is on record as “improve”. Moreover, the “Sleep at follow up (insomnia/WASO)” value in assay [1] (Example 10: person with AD, oral 30 mg/day, 60 days) is “sleeping well through the night”.
Regarding `CNCC1CCOC1(c1ccccc1)c1ccccc1.Cl` (stereo not shown) [A19-144, 1-(2,2-diphenyltetrahydrofuran-3-yl)-N-methylmethanamine hydrochloride], the “Affinity for sigma-1 receptors” value at sigma-1 receptors was “low micromolar range”. For the same compound, in assay [2], the “Affinity for muscarinic acetylcholine receptors” value is listed as “low micromolar range”. Besides, in assay [1] (Example 5: person with AD, 20 mg oral every day, after two days of dosing), the Anxiety entry was “Resolution of the anxiety”. Further, in assay [1] (setting [4]), the “Agitation at follow up” value was “less agitated”; the “Results on all cognitive tests and HAM-D” value is reported as “improve”. For the same compound, the “Sleep at follow up (insomnia/WASO)” value in assay [1] (Example 9: person with AD, oral 50 mg/day, 30 days) was “sleeping well through the night”.
